What was measured:
[1] = system: choroidal neovascularization (CNV); experiment: Prevention model for CNV (treatment begun before laser-induced retinal injury in mice); assay type: in vivo; settings: oral twice daily from one day before retinal burning, 100 mg/kg Example 1, 45 mg/kg Example 3, or both, read fourteen days after burning, FIG. 2
Method: See the Examples section for additional information.
(§1) Mice were anesthetized and the pupils were dilated. Burns of krypton laser photocoagulation were delivered to the retina. Administration of the compound described in Example 1 was initiated seven days after the laser-induced injury. Oral doses of either the vehicle alone or vehicle containing the compound of formula (I) (designated as VEGF R in FIG. 1) at a dose or 4 mg/kg, 20 mg/kg, or 100 mg/kg were administered twice daily for seven days. After seven day of treatment, the mice were perfused with fluorescein-labeled dextran, and the area of choroidal neovascularization was quantitated.
In this experiment, the compound described in Example 1 (Designated as VEGF R in FIG. 2), Example 3 (designated as vitronectin in FIG. 2), or a combination of the compounds described in Example 1 and Example 3 (designated as “both” in FIG. 2) were administered to each mouse beginning one day before retinal burning was performed according to the methods described in Example 4. The compounds were administered orally twice daily at a dosage of 100 mg/kg for the compound of Example 1 or 45 mg/kg for the compound of Example 3. Fourteen days after the retinal burning, the CNV area was quantitated as described above.

[2] = system: choroidal neovascularization (CNV); experiment: Regression model for CNV (laser-induced choroidal neovascularization in mice); assay type: in vivo; settings: oral 4, 20 or 100 mg/kg twice daily for seven days, started seven days after laser-induced injury, compared with vehicle/untreated
Source text: In this regression model, CNV was induced in mice by laser burns on the posterior pole of the retina. Seven days after the laser-induced injury, the mice began a regime in which they were given either vehicle alone or 5-[[4-[(2,3-Dimethyl-2H-indazol-6-yl)methylamino]-2-pyrimidinyl]amino]-2-methylbenzenesulfonamide at the indicated doses. Seven days after this regime was initiated, the size of the CNV lesions was quantitated. See the Examples section for additional information.
as §1

## O=C(O)C[C@@H]1Cc2ccc(OCCCNc3ccccn3)cc2CN(CC(F)(F)F)C1=O [Example 3, (S)-3-oxo-8-[3-(pyridin-2-ylamino)-1-propyloxy]-2-(2,2,2-trifluoroethyl)-2,3,4,5-tetrahydro-1H-2-benzazepine-4-acetic acid]
[1]
  CNV area (size of choroidal neovascular lesions): a decrease in size of the resulting choroidal neovascular lesions

## Cc1ccc(Nc2nccc(N(C)c3ccc4c(C)n(C)nc4c3)n2)cc1S(N)(=O)=O [pazopanib, 5-({4-[(2,3-dimethyl-2H-indazol-6-yl)(methyl)amino]pyrimidin-2-yl}amino)-2-methylbenzenesulfonamide]
[2]; FIG. 1
  area of choroidal neovascularization (size of CNV lesions): a decrease in the size of the resulting choroidal neovascular lesions
[2]; FIG. 1, listed as Pazopanib
  area of choroidal neovascularization (size of CNV lesions): decreased the CNV area in a dose-specific manner
[1]
  CNV area (size of choroidal neovascular lesions): a decrease in size of the resulting choroidal neovascular lesions

Reference: patent US20080293691A1, “Treatment Method” (SMITHKLINE BEECHAM CORPORATION, priority 2005, published 2008)
